Experimental data taken from patent US20260209152A1, “Substituted Hydroxystilbene Compounds and Derivatives, Synthesis and Uses Thereof” (Kynan Duke IP, LLC, priority 2019, published 2026).
Where “and” joins values, the source holds several entries; their conditions need not be identical. Equal values may be shown once. Entries after “also recorded” stand apart in the source; their conditions may differ. Read-outs that look alike come from different tables or passages of the source. Blank lines part the entries; values can stand above or below the compound they belong to.

Legend:
[1] = test system: Kidney CRL-1611; assay: CellTiter Glo cell viability assay; assay type: cell-based; details: Homo sapiens, 72 h
Description: (§1) 1.7*10^3 cells/well were seeded in quadruplicates in 96-well plate after plating. Drugs were added at 5 μM and 2-fold dilutions over 18 concentrations (0.000038146-5 […] range) to generate a dose-response curve. Cell growth was assessed on day 1, 3 and 5 after drug treatments using the CellTiter Glo Luminescence Cell Viability Assay (Promega) according to manufacturer's protocol. Thermo Scientific Varioskan LUX Multimode Microplate instrument was used for plate reading. Data are expressed as mean luminescence (arbitrary units) ±S.D.
(§2) Cell Viability Assays were employed to determine the concentration of Compound 1 (KYN-001) and analogues where the response is reduced by half. For each treatment of cancer cells, 1, 2, 5, 10 and 20 μM solutions of compounds were applied. GraphPad Prism 7 software was used to fit dose response curves. Relative Luminescence Units were plotted against the log values of the doses used and the nonlinear regression model was used for data analysis.
(§3) The protocol for cell proliferation was optimized for Compound 8 (KYN-119) to enable a more accurate assessment of its low IC50 value. In this protocol, 18 dosages (2 fold dilutions ranging from 0.000038146 to 5 μM) were applied to cells seeded in 96-well plates, and Luminescence was measured after 1, 3 and 5 days upon treatments.

[2] = test system: Pancreatic AsPC-1n; assay: CellTiter Glo cell viability assay; assay type: cell-based; details: Homo sapiens, 72 h; 3 Days of treatment; 18 2-fold dilutions 5-0.00003 μM
Description: as §1, §2, §3

[3] = test system: Liver JHH-5; assay: CellTiter Glo cell viability assay; assay type: cell-based; details: Homo sapiens, 72 h; 3 Days of treatment; 18 2-fold dilutions 5-0.00003 μM
Description: as §1, §2, §3

[4] = test system: Bladder HT_1376; assay: CellTiter Glo cell viability assay; assay type: cell-based; details: Homo sapiens, HT-1376, 72 h; 3 Days of treatment; 18 2-fold dilutions 5-0.00003 μM
Description: as §1, §2, §3

[5] = test system: Rhabomyosarcoma SJCRH30; assay: CellTiter Glo cell viability assay; assay type: cell-based, human
Procedure, shortened: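 Cells seeded at 1.7*10^3/well in quadruplicate; compounds at 18 two-fold dilutions from 5 μM (0.000038146-5 μM), or at 1, 2, 5, 10 and 20 μM. CellTiter Glo luminescence read on days 1, 3 and 5 after treatment. IC50 by nonlinear regression of luminescence versus log dose.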

[6] = test system: melanoma B16F10 xenografted in BALB/c mice; assay: B16F10 xenografted mice: tumor volume and histopathology; assay type: in vivo
Description: (§4) B16F10 cells (25×10^5 cells/mouse) were injected subcutaneously into the right flank of female BALB/c mice aged 7-8 weeks. Mice (n=10) were divided into 2 groups and given daily oral suspension of 27 (treated group), or vehicle (control group) for 15 days. The treated group was orally given a suspension of 27 at 900 mg/kg. The control group was given the vehicle suspension (SEDDS). Measurements performed on days 0, 9 and 15 only. Tissues (plasma, tumor, liver, spleen and brain) were harvested within 3 hours of final treatment. Biopsies of tumor tissues for histopathology were obtained subsequently.
Tissue samples from the tumors of both treated and control mice were fixed with formalin. Histopathological examination of these tumor samples was performed by Lore Laboratory, CA, USA.

[7] = test system: BALB/c mice; assay: Effect of oral administration on animal wellbeing in B16F10 xenografted mice; assay type: in vivo; details: 900 mg/kg oral daily for 15 days
Description: (§5) • Observe and assess the effect of oral administration of 27 on animal wellbeing. • Quantify levels of 27 in tissues (plasma, tumor, liver, spleen and brain) to assess the compound bioaccumulation and distribution.
as §4

[8] = Concentration of compound 27 in tissues (LC/MS/MS) of B16F10 xenografted mice; assay type: in vivo
Description: as §5, §4
Concentrations of 27 in different tissues were determined using LC/MS/MS spectrometry.

[9] = 900 mg/kg oral daily, individual treated mice
[10] = individual treated mice, 900 mg/kg oral daily for 15 days in SEDDS, harvested within 3 hours of final treatment, LC/MS/MS, 900 mg/kg

Structure (SMILES): COc1cc(/C=C/c2cc(O)cc(OC)c2CC=C(C)C)ccc1O [Compound 1, (E)-3-(4-hydroxy-3-methoxystyryl)-5-methoxy-4-(3-methylbut-2-en-1-yl)phenol]
IC50 ([1]; 3 Days of treatment, 18 2-fold dilutions 5-0.00003 μM, read-out: Average IC50): 93.7 nM
IC50 ([1]; Day 3 upon drug treatment, 10 dosages 0.0001-20 μM, read-out: IC50): 93.7 nM

IC50 [2]: 2000 nM
IC50 ([5]; Homo sapiens, 72 h, 3 Days of treatment, 18 2-fold dilutions 5-0.00003 μM): 43.4 nM
Fold IC50 ([5]; IC50 of 1 [KYN-001] vs 8 [KYN-119], 3 Days): 1.9
Structure (SMILES): CCOc1cc(O)cc(/C=C/c2ccc(O)c(OC)c2)c1CC=C(C)C [Compound 8, (E)-3-Ethoxy-5-(4-hydroxy-3-methoxystyryl)-4-(3-methylbut-2-en-1-yl)phenol]
IC50 [3]: 4370 nM
IC50 [4]: 610 nM

Structure (SMILES): COc1cc(/C=C/c2cc(O)cc(OC)c2CC=C(C)C)ccc1NC=O [Compound 27, (E)-N-(4-(5-hydroxy-3-methoxy-2-(3-methylbut-2-en-1-yl)styryl)-2-methoxyphenyl)formamide]
Histochemical analysis of tumor samples, in words ([6]; 900 mg/kg oral daily for 15 days): tumors were subsequently diminished after day 10; also recorded: lysed and/or underwent necrosis
Tumor volume Day 0 [6, 9]: 109.29 mm^3 and 52.18 mm^3 and 58.45 mm^3 and 82.97 mm^3 and 66.82 mm^3
Tumor volume Day 9 [6, 9]: 132.59 mm^3 and 178.68 mm^3 and 37.38 mm^3 and 60.93 mm^3 and 47.3 mm^3
Tumor volume Day 15 [6, 9]: 5.31 mm^3 and 19.93 mm^3 and 35.03 mm^3 and 42.35 mm^3 and 39.44 mm^3
Signs of toxic effect [7]: no signs of toxic effect; also recorded: low toxicity when given orally
Tissue distribution, in words ([8]; 900 mg/kg oral daily for 15 days, tissues harvested within 3 hours of final treatment): Low plasma level; also recorded: high tendency to accumulate in the brain
Concentration of compound 27 in tissues: Liver [8, 10]: 12.6 μg/mg and 10.2 μg/mg and 1.0 μg/mg and 0.0 μg/mg (2×)
Concentration of compound 27 in tissues: Plasma [8, 10]: 0.0 ng/mL (3×) and 8.4 ng/mL and 0.4 ng/mL
Concentration of compound 27 in tissues: Spleen [8, 10]: 2 μg/mg and 0 μg/mg (4×)
Concentration of compound 27 in tissues: Tumor [8, 10]: 0 μg/mg (3×) and 11.6 μg/mg
